Reference: PubChem BioAssay AID488966 (Southern Research Specialized Biocontainment Screening …, 2010)

Test system: E. coli UTI89 K1F phage lysis, alamar blue, 2 h
Assay: protection from phage-mediated lysis, alamar blue read-out – E. coli UTI89, K1F phage, bacterial capsule biogenesis inhibitors (AID 488966);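 further: capsule biogenesis inhibitors block K1F phage lysis so surviving cells raise fluorescence; higher fluorescence means more inhibition of phage lysis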

N=C(N)c1ccc(/C=C/c2ccc(C(=N)N)cc2O)cc1
IC50: 11.1 µM

O=C(ONc1ccc(N=NC(=O)c2ccccc2O)cc1)c1ccccc1
IC50: 72.7 µM

CC1(C(=O)O)CCC(C(=O)Nc2ccc3ccccc3c2)C1(C)C (stereo not given)
IC50: 178 µM

CCN(CCCl)c1cc(CN(C)C)cc(NC(=O)c2ccc(C(=O)Nc3cc(CN(C)C)cc(N(CC)CCCl)c3)cc2)c1
IC50: 118 µM

O=C(NCc1cc([N+](=O)[O-])ccc1O)c1cccnc1Sc1ccccc1Cl
IC50: 175 µM

Cc1cccc(C)c1NC(=O)C[N+](C)(C)CC(O)COc1cccc2ccccc12 (stereo not given)
IC50: 91 µM

Cc1ccccc1NC(=NCCCN1CC1)Nc1ccccc1C
IC50: 286 µM

COc1ccc2nc(NC(=O)c3ccc(Br)s3)sc2c1
IC50: 59.7 µM

N=c1n(CCN2CCCC2)c2ccccc2n1CC(O)c1ccc(Cl)c(Cl)c1 (stereo not given)
IC50: 140 µM

NC(N)=N/N=C/c1ccc(OCc2ccccc2)cc1
IC50: 60.8 µM

COc1cc(/C=N/N=C(N)N)ccc1OCc1ccccc1Cl
IC50: 56.4 µM

C=CCOc1ccc(C2c3c(oc4ccccc4c3=O)C(=O)N2CCCN2CCOCC2)cc1 (stereo not given)
IC50: 200 µM

Cc1cc(C)c(NC(=O)C[N+](C)(C)CC(O)COc2cccc3ccccc23)c(C)c1 (stereo not given)
IC50: 82.2 µM

O=C(NCc1cc([N+](=O)[O-])ccc1O)c1cccnc1Sc1ccccc1
IC50: 128 µM

CCN(CC)c1ccc2c(-c3ccc(S(=O)(=O)O)cc3S(=O)(=O)[O-])c3ccc(=[N+](CC)CC)cc-3oc2c1
IC50: 30.6 µM

CCC1=NN2C(=N)/C(=C\c3ccc(SCc4ccco4)o3)C(=O)N=C2S1
IC50: 68.7 µM

O=C1c2c(O)ccc(O)c2C(=O)c2c(NCCNCCO)ccc(NCCNCCO)c21
IC50: 211 µM

N=C(N)SCCc1cccc(CCSC(=N)N)c1
IC50: 114 µM

CCCOc1ccc(C(=O)C(CCC(CNCC)C(=O)c2ccc(OCCC)cc2)CNCC)cc1 (stereo not given)
IC50: 132 µM

O=C(Nc1cccc(C2=NCCN2)c1)Nc1cccc(C2=NCCN2)c1
IC50: 251 µM

CCN(CC)CCCNc1nc2ccccc2c2[nH]c3ccc(OC)cc3c12
IC50: 86.6 µM

O=C(COc1ccc(Cl)cc1Cl)Nc1ccc(C(=O)Nc2ccccc2C(=O)O)cc1
IC50: 74.6 µM

Cc1ccc(C2c3c(oc4cc(C)c(C)cc4c3=O)C(=O)N2CCCN2CCOCC2)cc1 (stereo not given)
IC50: 228 µM

O=C(Nc1ccncc1)c1ccc2ncsc2c1
IC50: 123 µM

O=C1C2(Cl)C3(Cl)C4(Cl)C(Cl)(Cl)C5(Cl)C3(Cl)C1(Cl)C5(Cl)C24Cl (stereo not given)
IC50: 74.8 µM
